Data reported in paper PMC8748874, “Structures of the human peroxisomal fatty acid transporter ABCD1 in a lipid environment” (Communications Biology, 2022).

How the values were obtained:
Experiment in all cases: molybdate-based colorimetric ATPase assay
Type in all cases: biochemical
[1] = target: T1, ABCD1 (ALDP) (Homo sapiens, UniProt P33897); conditions: 10 mM MgCl2, pH 7.5, 37 °C
T1 construct: full length, codon-optimized synthetic gene; C-terminal eYFP-Rho1D4 tag cut off with 3C protease; HEK293 Flp-In TREX; homodimer; in DDM/CHS, liposomes or MSP1D1 nanodiscs

[2] = target: T1, ABCD1 (ALDP); conditions: DDM/CHS detergent; 5 mM ATP, 10 mM MgCl2, pH 7.5, 37 °C
[3] = target: T1, ABCD1 (ALDP); conditions: DDM/CHS detergent; 5 mM ATP, 10 mM MgCl2, pH 7.5, 37 °C; remark: listed apart in the source
[4] = target: T1, ABCD1 (ALDP); conditions: DDM/CHS detergent; 5 mM ATP, 10 mM MgCl2, pH 7.5, 37 °C; with C24:0-CoA; suggested competition for same site; no stimulation alone

T1 sequence (P33897 whole entry): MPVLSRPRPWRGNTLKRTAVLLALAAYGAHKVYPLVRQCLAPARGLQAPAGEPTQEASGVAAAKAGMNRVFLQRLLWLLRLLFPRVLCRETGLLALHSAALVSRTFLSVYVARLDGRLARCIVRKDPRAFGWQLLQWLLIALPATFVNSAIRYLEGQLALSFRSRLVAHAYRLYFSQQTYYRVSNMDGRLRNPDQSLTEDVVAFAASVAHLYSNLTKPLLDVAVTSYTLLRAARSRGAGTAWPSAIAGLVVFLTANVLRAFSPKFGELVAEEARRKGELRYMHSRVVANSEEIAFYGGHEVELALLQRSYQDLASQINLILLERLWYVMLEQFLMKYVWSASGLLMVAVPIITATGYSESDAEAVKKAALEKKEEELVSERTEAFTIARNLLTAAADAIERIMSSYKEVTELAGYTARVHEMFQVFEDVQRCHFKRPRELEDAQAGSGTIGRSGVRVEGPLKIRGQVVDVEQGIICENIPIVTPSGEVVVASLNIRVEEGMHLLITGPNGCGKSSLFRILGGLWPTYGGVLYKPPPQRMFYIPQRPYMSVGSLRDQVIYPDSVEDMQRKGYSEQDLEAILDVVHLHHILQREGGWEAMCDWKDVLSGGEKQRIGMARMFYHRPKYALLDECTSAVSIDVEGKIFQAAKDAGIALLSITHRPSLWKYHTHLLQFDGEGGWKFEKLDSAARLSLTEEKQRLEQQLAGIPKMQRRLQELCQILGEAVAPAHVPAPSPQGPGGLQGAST

Row | SMILES | inhibition of ATPase activity at 5 mM [1] | ATPase rate stimulation at 0.1 and 1 mM [3] | further results
1 | Nc1ncnc2c1ncn2[C@@H]1O[C@H](COP(=O)(O)OP(=O)(O)OP(O)(O)=S)[C@@H](O)[C@H]1O [ATPγS] | sensitive to inhibition by sodium orthovanadate (VO4) or the non-hydrolysable ATP analog ATPγS | – | –
2 | CCCCCCCC/C=C\CCCCCCCC(=O)SCCNC(=O)CCNC(=O)[C@H](O)C(C)(C)COP(=O)(O)OP(=O)(O)OC[C@H]1O[C@@H](n2cnc3c(N)ncnc32)[C@H](O)[C@@H]1OP(=O)(O)O [C18:1-CoA] | – | – | ATPase rate stimulation [2]: we also observed ATPase rate stimulation by C18:1-CoA
3 | CCCCCCCCCCCCCCCCCCCCCCCC(=O)SCCNC(=O)CCNC(=O)[C@H](O)C(C)(C)COP(=O)(O)OP(=O)(O)OC[C@H]1O[C@@H](n2cnc3c(N)ncnc32)[C@H](O)[C@@H]1OP(=O)(O)O [C24:0-CoA] | – | we observed ATPase rate stimulation for C24:0-CoA and C26:0-CoA | –
4 | CCCCCCCCCCCCCCCCCCCCCCCCCC(=O)SCCNC(=O)CCNC(=O)[C@H](O)C(C)(C)COP(=O)(O)OP(=O)(O)OC[C@H]1O[C@@H](n2cnc3c(N)ncnc32)[C@H](O)[C@@H]1OP(=O)(O)O [C26:0-CoA] | – | we observed ATPase rate stimulation for C24:0-CoA and C26:0-CoA | –
5 | CC(=O)SCCNC(=O)CCNC(=O)[C@H](O)C(C)(C)COP(=O)(O)OP(=O)(O)OC[C@H]1O[C@@H](n2cnc3c(N)ncnc32)[C@H](O)[C@@H]1OP(=O)(O)O [acetyl-CoA] | – | – | decrease of C24:0-CoA stimulated ATPase [4]: it can partially inhibit ATPase stimulation by C24:0-CoA
6 | [O]=[V]([OH])([OH])[OH] [sodium orthovanadate] | ATP hydrolysis was sensitive to inhibition by sodium orthovanadate (VO4) | – | –
